Data published in patent publication US20260232674A1, “METHODS OF TREATING HIDRADENITIS SUPPURATIVA” (Alumis Inc., priority 2023, published 2026).

Columns and labels:
IFN1 gene expression = test: IFN gene set expression (RNA-sequencing) in healthy volunteers, Compound A versus placebo, day 14; format: in vivo
Experimental: (§1) A study was conducted to assess IFN1 gene expression in healthy volunteers administered a regimen of Compound A. The data set consists of 48 subjects with transcriptome-wide RNA-sequencing data collected for each subject per time-point. For each subject, time points included a pre-dose at day 1, a pre-dose at day 14, and a 4 hour post-day 14 dose. A Wald test was used to assess the association of the various doses at post-dose day 14 versus placebo. To assess potentially off target effects, a secondary transcriptome-wide analysis was performed. Multiple test correction was completed using a Benjamini-Hochberg cutoff of 0.05 within the primary and secondary analyses separately.
For example FIG. 4 and FIG. 5 show dose-dependent median IFN gene expression levels over time for HERC5, IFI27, IFIT1, RSAD2. […] As shown in FIG. 6 and FIG. 7, SIGLEC1 was decreased after a 14-day regimen of treatment with Compound A.

[1] = IFN gene expression in healthy volunteers after 7 days 40 mg Compound A twice daily versus placebo; format: in vivo; settings: gene CETP, 40 mg twice daily, versus placebo, healthy volunteers
Experimental: as §1, with “[…] […]” for “For each subject, time points included a pre-dose at day 1, a pre-dose at day 14, and a 4 hour post-day 14 dose. A Wald test was used to assess the association of the various doses at post-dose day 14 versus placebo.”

IFN gene expression = test: as above; format: in vivo
Experimental: as §1, with “[…] […]” for “For each subject, time points included a pre-dose at day 1, a pre-dose at day 14, and a 4 hour post-day 14 dose. A Wald test was used to assess the association of the various doses at post-dose day 14 versus placebo.”

[2] = test system: transcriptome-wide gene expression; test: Secondary transcriptome-wide analysis for potentially off target effects, day 14 4 hour post-treatment versus placebo; format: in vivo, healthy volunteers
Experimental: as §1

[2H]C([2H])([2H])CC(=O)c1cnc(NC(=O)C2CC2)cc1Nc1cccc(-c2ncn(C([2H])([2H])[2H])n2)c1OC [Compound A, N-(4-((2-Methoxy-3-(1-(methyl-d3)-1H-1,2,4-triazol-3-yl)phenyl)amino)-5-(propanoyl-3,3,3-d3)pyridin-2-yl)cyclopropanecarboxamide]
association of Compound A with SIGLEC1 gene expression (Wald test) (IFN1 gene expression; after 14 days of treatment versus placebo, Table 2): significant association
median IFN gene expression levels for HERC5, IFI27, IFIT1, RSAD2 (IFN1 gene expression; after 14 days, versus placebo, FIG. 4 and FIG. 5, healthy volunteers): substantial decrease
median gene expression levels for SIGLEC1 (IFN1 gene expression; after a 14-day regimen, versus placebo, FIG. 6 and FIG. 7, healthy volunteers): decreased
log2FoldChange CXCL10 (IFN1 gene expression; gene CXCL10, after 14 days of treatment versus placebo, healthy volunteers): −1.589
log2FoldChange EPSTI1 (IFN1 gene expression; gene EPSTI1, after 14 days of treatment versus placebo, healthy volunteers): −0.2266
log2FoldChange IFI27 (IFN1 gene expression; gene IFI27, after 14 days of treatment versus placebo, healthy volunteers): −1.082
log2FoldChange IFI44 (IFN1 gene expression; gene IFI44, after 14 days of treatment versus placebo, healthy volunteers): −0.3773
log2FoldChange IFI44L (IFN1 gene expression; gene IFI44L, after 14 days of treatment versus placebo, healthy volunteers): −1.043
log2FoldChange IFIT1 (IFN1 gene expression; gene IFIT1, after 14 days of treatment versus placebo, healthy volunteers): −1.676
log2FoldChange ISG15 (IFN1 gene expression; gene ISG15, after 14 days of treatment versus placebo, healthy volunteers): −0.8721
log2FoldChange ISG20 (IFN1 gene expression; gene ISG20, after 14 days of treatment versus placebo, healthy volunteers): 0.08851
log2FoldChange MX1 (IFN1 gene expression; gene MX1, after 14 days of treatment versus placebo, healthy volunteers): −1.438
log2FoldChange OAS1 (IFN1 gene expression; gene OAS1, after 14 days of treatment versus placebo, healthy volunteers): −0.1127
log2FoldChange OAS2 (IFN1 gene expression; gene OAS2, after 14 days of treatment versus placebo, healthy volunteers): −0.008935
log2FoldChange OAS3 (IFN1 gene expression; gene OAS3, after 14 days of treatment versus placebo, healthy volunteers): −0.7134
log2FoldChange RSAD2 (IFN1 gene expression; gene RSAD2, after 14 days of treatment versus placebo, healthy volunteers): −0.4713
log2FoldChange SIGLEC1 (IFN1 gene expression; gene SIGLEC1, after 14 days of treatment versus placebo, healthy volunteers): −3.579
log2FoldChange SPATS2L (IFN1 gene expression; gene SPATS2L, after 14 days of treatment versus placebo, healthy volunteers): −0.5117
log2FoldChange CETP [1]: 1.503
rank of SIGLEC1 among differentially expressed genes, treated versus placebo (IFN gene expression; 40 mg twice daily, Table 3): top differentially expressed gene
log2FoldChange CHRM3 (IFN gene expression; gene CHRM3, 40 mg twice daily, versus placebo, healthy volunteers): −1.521
log2FoldChange HJURP (IFN gene expression; gene HJURP, 40 mg twice daily, versus placebo, healthy volunteers): 1.007
log2FoldChange OSM (IFN gene expression; gene OSM, 40 mg twice daily, versus placebo, healthy volunteers): 1.157
log2FoldChange SIGLEC1 (IFN gene expression; gene SIGLEC1, 40 mg twice daily, versus placebo, healthy volunteers): −3.626
log2FoldChange SOCS3 (IFN gene expression; gene SOCS3, 40 mg twice daily, versus placebo, healthy volunteers): 1.421
log2FoldChange SYN2 (IFN gene expression; gene SYN2, 40 mg twice daily, versus placebo, healthy volunteers): 2.239
log2FoldChange CDNF ([2]; gene CDNF, secondary analysis): 1.185
log2FoldChange ENSG00000288643 ([2]; gene ENSG00000288643, secondary analysis): −1.541
log2FoldChange IFI6 ([2]; gene IFI6, secondary analysis): −1.206
log2FoldChange IFIT1 ([2]; gene IFIT1, secondary analysis): −1.676
log2FoldChange JPH4 ([2]; gene JPH4, secondary analysis): −1.043
log2FoldChange LRP1 ([2]; gene LRP1, secondary analysis): −1.314
log2FoldChange LRRC75B ([2]; gene LRRC75B, secondary analysis): −1.205
log2FoldChange MX1 ([2]; gene MX1, secondary analysis): −1.438
log2FoldChange SIGLEC1 ([2]; gene SIGLEC1, secondary analysis): −3.579
off target associations after multiple test corrections ([2]; transcriptome-wide, Table 4): no significant off target associations
